Measurements as given in paper PMC7849011, “Defining the Antimalarial Activity of Cipargamin in Healthy Volunteers Experimentally Infected with Blood-Stage Plasmodium falciparum” (Antimicrobial Agents and Chemotherapy, 2021).
“Also recorded” adds a separate entry of the source.

Key:
[1] = tested on: P. falciparum 3D7; assay: Induced blood-stage malaria (IBSM) volunteer infection study: parasitemia by 18S rRNA qPCR; type: in vivo, Plasmodium falciparum; details: for Log10PRR48 (95%CI) / Parasite Clearance Half-Life (95%CI): 10 mg
Excerpt: A single cohort of eight subjects was inoculated intravenously with P. falciparum 3D7-infected human erythrocytes (approximately 1,800 viable parasites) as previously described ([24]). Parasite growth was monitored by collecting blood samples and performing quantitative PCR (qPCR) targeting the gene encoding P. falciparum 18S rRNA ([25]). […] The dose of cipargamin selected was predicted to be subtherapeutic based on preclinical modeling ([7]) and pharmacokinetic data obtained in previous clinical studies ([8]) and thus chosen to facilitate modeling to estimate the pharmacokinetic/pharmacodynamic relationship. To monitor total parasitemia, blood samples were collected for 18S rRNA qPCR before inoculation, on day 3, twice daily on days 4 to 6, pretreatment on day 7, and 4, 8, 12, 16, 24, 30, and 36 h posttreatment, twice daily from day 9 to day 11, and every 1 to 3 days until day 35. Blood samples for gametocytemia measurements were collected on day 11, every 1 to 3 days between day 15 and day 29, and on day 35. […] Analyses were performed in R version 3.3.0. The PRR and parasite clearance half-life were estimated using the slope of the optimal fit for the log-linear relationship of the parasitemia decay as described previously ([27]).

[2] = tested on: P. vivax; parameters: method as in PMID 25075833; details: 30 mg per day for 3 days, P. vivax malaria patients; cited from earlier work
[3] = tested on: P. falciparum gametocytes; assay: Direct membrane feeding assay (DMFA), transmission to Anopheles stephensi mosquitoes; type: in vivo, Plasmodium falciparum; details: blood collected 20 days after cipargamin dosing
Procedure: The transmission of parasites from subjects to female Anopheles stephensi mosquitoes was measured using a direct membrane feeding assay (DMFA) as previously described ([23]). Briefly, ∼100 mosquitoes (3 to 7 days old) were allowed to feed on a water-jacketed membrane feeder filled with venous blood collected 20 days after cipargamin dosing into lithium heparin anticoagulant tubes. Seven to 9 days after blood feeding, mosquitoes were dissected to detect oocysts in midgut preparations using qPCR targeting the gene encoding 18S rRNA.

[4] = clinical; details: human, in vivo, 10 mg
Procedure: Blood samples were collected at the following time points after dosing to determine the cipargamin plasma concentration: 1, 2, 3, 4, 8, 12, 16, 24, 36, 48, 72, 96, and 120 h. Samples were analyzed by liquid chromatography-tandem mass spectrometry as previously described ([8]). Noncompartmental PK analysis was performed using WinNonlin Pro version 6.4.

[5] = tested on: Plasmodium falciparum; details: cited from earlier work
[6] = tested on: P. falciparum female gametocytes; assay: Gametocytemia by pfs25 qRT-PCR; type: in vivo, Plasmodium falciparum
Procedure: A single oral dose of 960 mg piperaquine (PCI Pharma Services, United Kingdom) was administered to subjects in response to parasite regrowth. The purpose of piperaquine treatment was to clear asexual parasites without clearing any gametocytes that may be present. This would allow the gametocytocidal activity of a second dose of cipargamin to be investigated, as well as the transmission of gametocytes to mosquitoes. Gametocytemia was monitored using quantitative reverse transcriptase PCR (qRT-PCR) targeting pfs25 mRNA, a transcript preferentially expressed in mature female gametocytes ([26]). Transcripts per milliliter of blood were converted to female gametocytes per milliliter of blood using a standard curve ([29]). All participants were to receive compulsory rescue treatment with artemether-lumefantrine ([…]; Novartis Pharmaceuticals Pty. Ltd., Macquarie Park, Australia), as well as a single 45-mg dose of primaquine ([…] Group, Sydney, Australia) to clear gametocytes, 21 days after cipargamin dosing or earlier if a second round of parasite regrowth occurred following piperaquine treatment. To monitor total parasitemia, blood samples were collected for 18S rRNA qPCR before inoculation, on day 3, twice daily on days 4 to 6, pretreatment on day 7, and 4, 8, 12, 16, 24, 30, and 36 h posttreatment, twice daily from day 9 to day 11, and every 1 to 3 days until day 35. Blood samples for gametocytemia measurements were collected on day 11, every 1 to 3 days between day 15 and day 29, and on day 35. […] Analyses were performed in R version 3.3.0. The PRR and parasite clearance half-life were estimated using the slope of the optimal fit for the log-linear relationship of the parasitemia decay as described previously ([27]).

[7] = 10 mg single oral dose, 8 healthy subjects, IBSM

C[C@H]1Cc2c([nH]c3cc(Cl)c(F)cc23)[C@@]2(N1)C(=O)Nc1ccc(Cl)cc12 [cipargamin]
time to observed reduction in parasitemia ([1]; 10 mg single oral dose): ≤ 24 h | log10 parasite reduction ratio over 48 h postdose (PRR48), cohort-specific [1, 7]: 3.63 | parasite clearance half-life, cohort-specific [1, 7]: 3.99 h | time of parasite regrowth after dosing ([1]; 10 mg single oral dose, all 8 subjects): 3 to 8 days | Log10PRR48 (95%CI) ([1]; subject 1): 4.22 (3.15, 5.29) | Parasite Clearance Half-Life (95%CI) ([1]; subject 1): 3.42 (2.73, 4.59) h | Log10PRR48 (95%CI) ([1]; subject 2): 5.84 (4.79, 6.90) | Parasite Clearance Half-Life (95%CI) ([1]; subject 2): 2.47 (2.10, 3.02) h | Log10PRR48 (95%CI) ([1]; subject 3): 4.09 (3.45, 4.73) | Parasite Clearance Half-Life (95%CI) ([1]; subject 3): 3.53 (3.05, 4.19) h | Log10PRR48 (95%CI) ([1]; subject 4): 2.18 (1.62, 2.73) | Parasite Clearance Half-Life (95%CI) ([1]; subject 4): 6.64 (5.30, 8.90) h | Log10PRR48 (95%CI) ([1]; subject 5): 4.23 (3.48, 4.98) | Parasite Clearance Half-Life (95%CI) ([1]; subject 5): 3.42 (2.90, 4.15) h | Log10PRR48 (95%CI) ([1]; subject 6): 1.28 (0.85, 1.71) | Parasite Clearance Half-Life (95%CI) ([1]; subject 6): 11.39 (8.47, 17.37) h | Log10PRR48 (95%CI) ([1]; subject 7): 4.12 (3.22, 5.03) | Parasite Clearance Half-Life (95%CI) ([1]; subject 7): 3.51 (2.87, 4.49) h | Log10PRR48 (95%CI) ([1]; subject 8): 4.63 (4.34, 4.92) | Parasite Clearance Half-Life (95%CI) ([1]; subject 8): 3.12 (2.93, 3.33) h | parasite clearance half-life [2]: 0.95 h | transmission to mosquitoes (oocysts in midgut by qPCR) [3]: did not transmit to mosquitoes; also recorded: could not be detected; also recorded: not observed | drug exposure (AUC0–∞) in IBSM subjects, fold lower than in patients with naturally acquired malaria [4]: around 3 fold | AUC(0-inf) ([4]; po): 1950 ± 753 ng·h/mL | CL/F, mean ± SD (% CV) ([4]; po): 5.72 ± 1.93 (33.7) liters/h | Cmax ([4]; po): 101 ± 18.3 ng/mL | Tmax ([4]; po): 2 h | Vd/F ([4]; po): 209 ± 54.5 L | AUC(0-t) ([4]; po, AUC0–24 h, mean ± SD (% CV)): 1010 ± 242 ng·h/mL | AUC(0-t) ([4]; po, AUC0–last, mean ± SD (% CV)): 1850 ± 690 ng·h/mL | half-life ([4]; po, t1/2 (elimination half-life), mean ± SD (% CV)): ~26 h | in vitro activity against P. falciparum stages [5]: active against both asexual and sexual stages | inhibition of early- and late-stage gametocyte development in vitro [5]: potent inhibitor | inhibition of oocyst development in vitro [5]: potent inhibition | gametocyte development after treatment ([6]; 10 mg cipargamin, followed by piperaquine): Low gametocyte densities were detected in all subjects; also recorded: detected in all 8 subjects; also recorded: not sufficient to prevent gametocyte development | gametocytemia at time of DMFA, geometric mean ([6]; 20 days after cipargamin dosing): 439 gametocytes/ml | peak gametocytemia, geometric mean ([6]; after 10 mg cipargamin then 960 mg piperaquine, 8 subjects): 976 female gametocytes/ml | time of peak gametocytemia after cipargamin dosing ([6]; all subjects, 24 days postinoculation): approximately 17 days
